Measured values as given in paper PMC9656436, “Synthesis and Biological Evaluation of New Isoxazolyl Steroids as Anti-Prostate Cancer Agents” (International Journal of Molecular Sciences, 2022).
Read-outs that look alike come from different tables or passages of the source.

Assays:
CYP17A1 [1] = target: T1, CYP17A1 (Homo sapiens, UniProt P05093); experiment: UV-Vis spectrophotometric titration (type I spectral response); type: binding; details: read-out: Kd
T1 construct: recombinant human CYP17A1, purified
T1 sequence (P05093 1-508): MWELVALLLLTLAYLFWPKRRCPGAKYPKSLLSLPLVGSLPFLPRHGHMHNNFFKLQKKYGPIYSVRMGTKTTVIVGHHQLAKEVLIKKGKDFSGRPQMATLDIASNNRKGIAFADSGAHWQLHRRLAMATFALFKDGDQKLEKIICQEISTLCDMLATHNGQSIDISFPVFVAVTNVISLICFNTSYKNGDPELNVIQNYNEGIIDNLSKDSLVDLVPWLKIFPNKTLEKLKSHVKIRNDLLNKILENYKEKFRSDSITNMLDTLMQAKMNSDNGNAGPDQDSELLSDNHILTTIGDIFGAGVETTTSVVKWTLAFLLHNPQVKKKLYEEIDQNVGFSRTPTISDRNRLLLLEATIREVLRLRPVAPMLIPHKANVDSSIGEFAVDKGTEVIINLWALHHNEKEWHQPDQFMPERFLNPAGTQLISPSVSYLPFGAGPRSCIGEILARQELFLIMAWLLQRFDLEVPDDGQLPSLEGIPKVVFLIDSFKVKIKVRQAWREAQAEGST

CYP17A1 [2] = target: T2, CYP17A1 (Homo sapiens, UniProt P05093); experiment: reconstituted […]α-hydroxylase assay, HPLC, […] compound; type: biochemical; details: read-out: 17α-Hydroxylase Activity / Inhibition, %
T2 construct: recombinant human CYP17A1, reconstituted system; with NADPH-cytochrome P450 reductase (rat)
T2 sequence (P05093 1-508): T1 sequence (P05093 1-508)
T2 sequence (P00388 2-678 partner): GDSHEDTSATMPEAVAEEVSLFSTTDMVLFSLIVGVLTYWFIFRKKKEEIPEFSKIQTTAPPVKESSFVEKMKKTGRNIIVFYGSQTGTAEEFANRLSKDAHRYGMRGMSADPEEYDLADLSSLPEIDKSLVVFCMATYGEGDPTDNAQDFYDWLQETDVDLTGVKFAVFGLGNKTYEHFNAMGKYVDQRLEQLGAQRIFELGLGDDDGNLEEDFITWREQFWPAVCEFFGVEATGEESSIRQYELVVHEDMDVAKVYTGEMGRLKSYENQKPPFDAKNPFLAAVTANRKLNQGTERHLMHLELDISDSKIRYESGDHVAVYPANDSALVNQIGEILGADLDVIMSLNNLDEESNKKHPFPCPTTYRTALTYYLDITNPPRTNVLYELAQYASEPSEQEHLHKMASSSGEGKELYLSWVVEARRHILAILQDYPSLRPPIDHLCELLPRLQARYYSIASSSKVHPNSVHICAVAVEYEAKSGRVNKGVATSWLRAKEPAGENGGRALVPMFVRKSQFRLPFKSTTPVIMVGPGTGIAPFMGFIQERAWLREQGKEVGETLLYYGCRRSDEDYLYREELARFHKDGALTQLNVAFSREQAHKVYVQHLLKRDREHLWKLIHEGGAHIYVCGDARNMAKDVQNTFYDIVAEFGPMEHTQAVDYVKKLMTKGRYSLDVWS

DU145 = experiment: cells; design: resazurin (Alamar blue) viability assay, resorufin fluorescence, GI50 from dose-response; details: Homo sapiens, DU-145, 72 h; read-out: Viability after 72 h (GI50) DU145
Protocol: (§1) Cells were seeded into the 96-well tissue culture plates and, on the other day, compounds were added in different concentrations in duplicate for 72 h. Upon treatment, the resazurin solution (Sigma Aldrich, St. Louis, MI, USA) was added for 4 h, and then the fluorescence of resorufin was measured at 544 nm/590 nm (excitation/emission) using a Fluoroskan Ascent microplate reader (Labsystems, Budapest, Hungary). The GI50 value was calculated from the dose–response curves that resulted from the measurements using GraphPad Prism 5. Antiproliferative properties of all novel steroids were tested in two AR-positive prostate cancer cell lines (LNCaP and LAPC-4) and one AR-negative cell line (DU145) using the Alamar-blue assay after 72 h treatment.

LAPC-4 = experiment: cells; design: resazurin (Alamar blue) viability assay, resorufin fluorescence, GI50 from dose-response; details: Homo sapiens, LAPC4, 72 h; read-out: Viability after 72 h (GI50) LAPC-4
Protocol: as §1

LNCaP = experiment: cells; design: resazurin (Alamar blue) viability assay, resorufin fluorescence, GI50 from dose-response; details: Homo sapiens, 72 h, read-out: Viability after 72 h (GI50) LNCaP
Protocol: as §1

AR = system: T3, AR; experiment: cells; design: species or system ARE14; ARE-driven firefly luciferase reporter; AR transcriptional activity normalised to 1 nM R1881; details: 24 h
T3 construct: endogenous AR in ARE14 reporter cells (22Rv1-derived)
Protocol: ARE14 cells were seeded (40,000 cells/well) into the Nunc™ MicroWell™ 96-well optical plate (Thermo Fisher Scientific, Waltham, MA, USA) on the second day. The cultivation medium was discarded, and the cells were washed with PBS. Analyzed compounds were dissolved in medium supplemented with CSS (agonist mode) or CSS with 1 nM R1881 (antagonist mode) and added to cells, including CSS and 1 nM R1881 controls. Upon 24 h of incubation, cells were washed with PBS and lysed for 10 min in a lysis buffer (10 mM Tris pH = 7.4, 2 mM DCTA, 1% nonidet P40, 2 mM DTT) at 37 °C. Next, a reaction buffer (20 mM tricine pH = 7.8, 1.07 mM MgSO4^.7H2O, 5 mM ATP, 9.4 mM luciferin) was added, and the luminescence was measured using a Tecan M200 Pro microplate reader ([…]). Based on the structural similarity of novel derivatives with galeterone and other published compounds (abiraterone, 3, and [6]), we tested the effect of our compounds towards the AR-transcriptional activity. Compounds were evaluated using an AR-dependent reporter cell line (ARE14) with a firefly-luciferase gene under the control of an androgen response element.

CYP17A1 [3] = target: T4, CYP17A1 (Homo sapiens, UniProt P05093); experiment: reconstituted […],20-lyase assay, HPLC, […] compound; type: biochemical; details: read-out: 17,20-Lyase Activity / Inhibition, %
T4 construct: recombinant human CYP17A1, reconstituted system; with NADPH-cytochrome P450 reductase (rat), cytochrome b5 (human)
T4 sequence (P00167 2-134 partner, one chain of several): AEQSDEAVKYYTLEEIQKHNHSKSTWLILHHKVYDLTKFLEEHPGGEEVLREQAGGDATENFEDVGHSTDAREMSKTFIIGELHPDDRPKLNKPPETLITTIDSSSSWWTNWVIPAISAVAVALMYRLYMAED

[4] = compound alone, vs 1 nM R1881 = 100%, read-out: AGONIST MODE 2 μM
[5] = compound alone, vs 1 nM R1881 = 100%, read-out: AGONIST MODE 10 μM
[6] = compound alone, vs 1 nM R1881 = 100%, read-out: AGONIST MODE 50 μM
[7] = with 1 nM R1881, read-out: % of control remaining

SMILES	Kd (CYP17A1 [1]) [µM]	inhibition at 50 µM (CYP17A1 [2]) [%]	GI50 (DU145) [µM]	GI50 (LAPC-4) [µM]	GI50 (LNCaP) [µM]	activity at 2 µM (AR; [4]) [%]	activity at 10 µM (AR; [5]) [%]	activity at 50 µM (AR; [6]) [%]	activity at 2 µM (AR; [7]) [%]	activity at 10 µM (AR; [7]) [%]	activity at 50 µM (AR; [7]) [%]	inhibition at 50 µM (CYP17A1 [3]) [%]
C[C@]12CC[C@H]3[C@@H](CC=C4C[C@@H](O)CC[C@@]43C)[C@@H]1CC[C@@H]2Cc1ccno1 [24a, (17R)-(Isoxazol-5-ylmethyl)-androst-5-en-3β-ol]	0.13 ± 0.02	–	–	–	–	–	–	–	–	–	–	–
CC(C)c1cc(C[C@H]2CC[C@H]3[C@@H]4CC=C5C[C@@H](O)CC[C@]5(C)[C@H]4CC[C@]23C)on1 [24b, (17R)-17-((3-isopropylisoxazol-5-yl)methyl)-androst-5-en-3β-ol]	–	45	–	–	–	–	–	–	–	–	–	–
C[C@]12CC[C@H]3[C@@H](CC=C4C[C@@H](O)CC[C@@]43C)[C@@H]1CC[C@@H]2Cc1cc(C2CC2)no1 [24c, (17R)-17-((3-Cyclopropylisoxazol-5-yl)methyl)-androst-5-en-3β-ol]	–	45.7	–	–	–	–	–	–	–	–	–	–
CCCCc1cc(C[C@H]2CC[C@H]3[C@@H]4CC=C5C[C@@H](O)CC[C@]5(C)[C@H]4CC[C@]23C)on1 [24d, 17β-((3-Butylisoxazol-5-yl)methyl)-androst-5-en-3β-ol]	1.5 ± 0.21	–	> 50	> 50	> 50	17.8 ± 0.1	21.1 ± 1.6	18.6 ± 3.6	109 ± 12.1	113 ± 21.1	104 ± 42.6	–
C[C@]12CC[C@H]3[C@@H](CC=C4C[C@@H](O)CC[C@@]43C)[C@@H]1CC[C@@H]2Cc1cc(-c2ccccc2)no1 [24e, (17R)-17-((3-Phenylisoxazol-5-yl)methyl)-androst-5-en-3β-ol]	–	–	> 50	> 50	> 50	14.7 ± 0.5	14.2 ± 1.4	12.8 ± 0.2	101 ± 9.5	101 ± 13.6	125 ± 27.4	–
CC(C)(O)c1cc(C[C@H]2CC[C@H]3[C@@H]4CC=C5C[C@@H](O)CC[C@]5(C)[C@H]4CC[C@]23C)on1 [24j, (17R)-17-((3-(2-Hydroxypropan-2-yl)isoxazol-5-yl)methyl)-androst-5-en-3β-ol]	1.9 ± 0.23	–	> 50	18.2 ± 1.2	25.8 ± 0.6	14.4 ± 2.8	12.6 ± 0.1	6.1 ± 1.5	100 ± 13.5	84.8 ± 17.4	21.6 ± 7.8	–
C[C@]12CC[C@H]3[C@@H](CC=C4C[C@@H](O)CC[C@@]43C)[C@@H]1CC[C@@H]2Cc1ccon1 [41a, (17R)-17-(Isoxazol-3-ylmethyl)-androst-5-en-3β-ol]	–	–	> 50	> 50	> 50	14.5 ± 1.5	14.7 ± 0.1	12.1 ± 1.3	98.2 ± 17.5	73.7 ± 14.9	50.8 ± 18.8	42.3
